Experimental data published in PMC9767854, “Discovery and mechanism studies of a novel ATG4B inhibitor Ebselen by drug repurposing and its anti-colorectal cancer effects in mice” (Cell & Bioscience, 2022).

Assays:
SW620 = assay: Autophagy flux by LC3B-II western blot in SW620; format: cell-based; conditions: Ebselen 10 μM with CQ 40 μM
Procedure: (§1) Fig. 5 Ebselen suppresses autophagy flux via inhibition of ATG4B. A, B HeLa cells were treated with Torin 1 (2 μM) or CQ (40 μM) and detected by western blot. C, D SW620 cells were transduced with sgCon and sgATG4B lentiviruses, respectively. Then cells were treated with CQ (40 μM) and detected by western blot. E, F HCT116 were treated with Ebselen (5 and 10 μM) or CQ (40 μM) and subjected to western blot. G, H SW620 were treated with Ebselen (10 μM) or CQ (40 μM) and western blotting was carried out to detect the protein levels. I, J Immunofluorescence analysis of endogenous LC3B in HCT116 treated with Ebselen (10 μM) or CQ (40 μM). Dots numbers for LC3B were derived from counting at least 20 cells and 5 fields from three independent replicated experiments. Bar = 10 μm. K HCT116 cells were treated with 2 μM Torin 1 in the presence or absence of 10 μM Ebselen for 12 h, then the level ratio of long-lived proteins was measured by flow cytometry
Immunoblotting assay was performed reportedly previously. Commonly, cells were lysed in ice-cold RIPA lysis buffer (Beyotime, P0013B) supplemented with Pierce™ protease inhibitor tablet (ThermoFisher Scientific, A32965). […]

ATG4B [1] = target: T1, ATG4B (Homo sapiens, UniProt Q9Y4P1); assay: Gel-based assay (SDS-PAGE and CBB staining of FRET-GATE-16 cleavage); format: biochemical; conditions: 1 μM
T1 construct: 6xHis; made in house; host or cells: E. coli BL21(DE3)
T1 sequence (Q9Y4P1 1-393): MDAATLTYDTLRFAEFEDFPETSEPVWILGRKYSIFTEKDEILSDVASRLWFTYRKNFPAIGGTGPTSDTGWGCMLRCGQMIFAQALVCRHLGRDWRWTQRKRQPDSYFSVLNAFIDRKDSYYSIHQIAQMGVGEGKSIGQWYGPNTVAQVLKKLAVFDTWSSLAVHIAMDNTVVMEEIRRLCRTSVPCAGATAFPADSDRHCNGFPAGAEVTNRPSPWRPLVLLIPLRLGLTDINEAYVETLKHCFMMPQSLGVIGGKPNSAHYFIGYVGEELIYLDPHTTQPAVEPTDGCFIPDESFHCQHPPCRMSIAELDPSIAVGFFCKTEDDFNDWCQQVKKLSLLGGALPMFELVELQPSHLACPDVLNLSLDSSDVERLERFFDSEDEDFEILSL
Procedure: Taking ATG4B as the target, we used the high-throughput FRET-based assay to screen the FDA-approved drugs library containing 1600 compounds (Fig. 1A). […] (Additional file 1: Figure S1C). Then twenty-four candidate compounds (marked in red) were noted through an initial screening at 10 μM (Fig. 1B). To further validate their inhibitory effect, a more rigorous and authentic approach as gel-based assay was carried out (Fig. 1C). The brake of the cleavage reaction of the substrate FRET-GATE-16 was very intuitively reflective of the compounds’ inhibitory effect on the ATG4B enzymatic activity. […] This was also verified in the FRET- and gel-based full concentration-response plot of compound 669 (Fig. 1D, E).
Fig. 1 Screening of ATG4B inhibitors based on the approved drugs library by FRET assay. A Illustration of the FRET-based high-throughput screening platform for ATG4B inhibitors. B Scatter plot of inhibition rate of approved library for ATG4B based on FRET assay. Candidate compounds were marked in red. […] C The inhibitory effect of twenty-four candidate compounds (10 μM) were detected by SDS-PAGE and Coomassie brilliant blue (CBB) staining according to the cleavage of substrates. […] D The dose-dependent inhibition of compound 669 (Ebselen) were determined by SDS-PAGE.

[2] = test system: Caspase 1, 2, 3, 4, 6, 8 and 9; assay: Caspase activity assay kits, caspase panel; format: biochemical; conditions: 10 μM; most caspases other than CASP2 and CASP3
Procedure: The enzyme activity of Caspase 1, Caspase 2, Caspase 3, Caspase 4, Caspase 6, Caspase 8 and Caspase 9 were determined via the activity assay kits (C1101, C1107, C1115, C1121, C1135, C1151 and C1157) from Beyotime (Shanghai, China). Then the experimental procedures were performed according to the manufacturer’s protocols.

HCT116 = assay: Immunofluorescence of endogenous LC3B dots; format: cell-based; conditions: Ebselen 10 μM, CQ 40 μM
Procedure: as §1
Immunofluorescence staining was carried out as described before. Respectively, cells seeded on glass-bottom 35-mm dishes (SORFA bio, 201,200) were washed with PBS and fixed for 20 min at room temperature with 4% paraformaldehyde after related administration. Subsequently, dishes were permeabilized with 0.3% Triton X-100 in PBS, and washed to be blocked in goat serum (Boster, AR1009) for 1 h before incubated with primary antibody overnight at 4℃. […]

WT and ATG4B KO HCT116 = assay: Apoptosis detection by cleaved PARP western blot; format: cell-based; conditions: low or high concentrations of Ebselen; STS 2 μM; 6 h
ATG4B [3] = target: T1, ATG4B; assay: FRET-based assay for ATG4B activity; format: biochemical
Procedure: FRET-based assay for ATG4B or ATG4A activity was operated as previously described [5, 17]. Briefly, Recombinant protein ATG4B (0.75 μg/ml) or ATG4A (5 μg/ml) was incubated with compounds in reaction buffer (150 mM NaCl, 20 mM Tris–HCl, pH 8.0, 0.1% CHAPS, 1 mM EDTA) at 37 °C. After 30 min, substrate FRET-GATE-16 (50 μg/ml) was added to a final volume of 50 μl. The reaction was recorded via relative fluorescence intensity ratio of 527 nm/477 nm (RFU). The final inhibition rate of the compound for ATG4 was calculated as: (RFUcompound-RFUNC)/(RFUCON-RFUNC) × 100%; respectively, NC as negative control without inhibitor, CON as control without enzymes.

HCT116 based xenograft = assay: HCT116 subcutaneous xenograft tumor model; format: in vivo, BALB/c-nu/nu mice; conditions: i.p., compared with SW620 xenografts
Procedure: Four- to six-weeks-old BALB/C nu/nu female mice purchased from the Experimental Animal Center of Sun Yat-Sen University, were approved by the Animal Ethics Committee at Sun Yat-sen University and kept in specific-pathogen-free environment. Approximately 2 × 10^6 SW620 cells or 1 × 10^7 HCT116 cells were injected subcutaneously into the dorsal flank on the right side of the mice. Different groups were divided randomly when the tumor volume was approximately 60–80 mm^3, before drug administration intraperitoneally (i.p.). Tumor volume was measured by calipers and calculated using the equation: 0.5 × length × width^2. At the end of the experiments, the mice were sacrificed and tumors were dissected and weighed. In particular, we employed Servicebio (Wuhan, China) to carry out H&E staining and immunohistochemistry assay.
Supplementary file 13578_2022_944_MOESM1_ESM.docx: Additional file 1: Figure S1. Screening of ATG4B inhibitors based on the approved drugs library by FRET assay. […] (D) Candidate compound number and name correspondence table, and IC50 calculation of nine commercially available compounds for ATG4B by FRET assay. Figure S2. […] Figure S3. […] Figure S5. […] Figure S6.

Compound: O=c1c2ccccc2[se]n1-c1ccccc1 [Ebselen]
- autophagic flux (LC3B-II) (SW620): inhibition of autophagic flux
- inhibition of ATG4B in gel (ATG4B [1]): complete inhibition
- effect on most caspase activities [2]: no significant effect
- number of endogenous LC3B dots (HCT116): decreased
- apoptosis (cleaved PARP) (WT and ATG4B KO HCT116): did not show any increase in apoptosis
- inhibition rate against ATG4B WT (ATG4B [3]; Ebselen 0.5 μM, 15-90 min, compared to 2CS): higher inhibition rate
- IC50 (ATG4B [3]; recombinant ATG4B 0.75 μg/ml, 30 min preincubation at 37 °C): 189 nM
- tumor suppression (HCT116 based xenograft): slightly weaker potential for tumor suppression
